Measurements from patent US6472348B1, “Pyridone derivatives and herbicides” (Kumiai Chemical Industry Co., Ltd., priority 1996, dated 2002).

Assays:
pale smartweed (Po) [1] = assay: Test Example 2: herbicidal effects by upland field soil treatment; type: in vivo; details: 100 g of the active ingredient per 10 ares;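 further: grade of growth control; 5 = at least 90%; 4 = 70 to 90%; 3 = 50 to 70%; 2 = 30 to 50%; 1 = 10 to 30%; 0 = under 10%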
Source text: (§1) (Test on Herbicidal Effects by Upland Field Soil Treatment)

barnyardgrass (Ec) [2] = assay: as above; type: in vivo; details: 100 g of the active ingredient per 10 ares
Source text: as §1

Digitaria ciliaris (Di) = assay: as above; type: in vivo; details: 100 g of the active ingredient per 10 ares;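 further: grade of growth control; 5 = at least 90%; 4 = 70 to 90%; 3 = 50 to 70%; 2 = 30 to 50%; 1 = 10 to 30%; 0 = under 10%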
Source text: as §1

[3] = system: common lambsquarters (Ch); assay: as above; type: in vivo; details: 100 g of the active ingredient per 10 ares
Source text: as §1

slender amaranth (Am) [4] = assay: as above; type: in vivo; details: 100 g of the active ingredient per 10 ares
Source text: as §1

rice flatsedge (Ci) [5] = assay: as above; type: in vivo; details: 100 g of the active ingredient per 10 ares
Source text: as §1

Diaitaria ciliaris (Di) = assay: Test Example 3: herbicidal effects by upland field foliage treatment; type: in vivo; parameters: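 grade of growth control; 5 = at least 90%; 4 = 70 to 90%; 3 = 50 to 70%; 2 = 30 to 50%; 1 = 10 to 30%; 0 = under 10%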
Summary of the method: (§2)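 Readout: visual herbicidal rating per defined standards, 14th day after treatment. Plants sown in sand (pot area 120 cm^2), soil-covered, greenhouse-cultured for 2 weeks prior to foliage application, then greenhouse-grown until scoring.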

pale smartweed (Po) [6] = assay: as above; type: in vivo; parameters: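 grade of growth control; 5 = at least 90%; 4 = 70 to 90%; 3 = 50 to 70%; 2 = 30 to 50%; 1 = 10 to 30%; 0 = under 10%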
Summary of the method: as §2

barnyardgrass (Ec) [7] = assay: as above; type: in vivo; parameters: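 grade of growth control; 5 = at least 90%; 4 = 70 to 90%; 3 = 50 to 70%; 2 = 30 to 50%; 1 = 10 to 30%; 0 = under 10%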
Summary of the method: as §2

[8] = system: common lambsquarters (Ch); assay: as above; type: in vivo; parameters: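 grade of growth control; 5 = at least 90%; 4 = 70 to 90%; 3 = 50 to 70%; 2 = 30 to 50%; 1 = 10 to 30%; 0 = under 10%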
Summary of the method: as §2

slender amaranth (Am) [9] = assay: as above; type: in vivo; parameters: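 grade of growth control; 5 = at least 90%; 4 = 70 to 90%; 3 = 50 to 70%; 2 = 30 to 50%; 1 = 10 to 30%; 0 = under 10%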
Summary of the method: as §2

rice flatsedge (Ci) [10] = assay: as above; type: in vivo; parameters: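 grade of growth control; 5 = at least 90%; 4 = 70 to 90%; 3 = 50 to 70%; 2 = 30 to 50%; 1 = 10 to 30%; 0 = under 10%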
Summary of the method: as §2

bulrush (Sc) = assay: Test Example 1: herbicidal effects by paddy field soil treatment; type: in vivo; details: 100 g of the active ingredient per 10 ares, 21st day after the application, index 0-5 of Table 47;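 further: grade of growth control; 5 = at least 90%; 4 = 70 to 90%; 3 = 50 to 70%; 2 = 30 to 50%; 1 = 10 to 30%; 0 = under 10%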
Summary of the method: (§3)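 Scoring of herbicidal effect came 21 days after application of 100 g active ingredient per 10 ares to flooded (3 cm) paddy-soil pots sown with barnyardgrass, monochoria and bulrush, kept in a greenhouse.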

barnyardgrass (Ec) [11] = assay: as above; type: in vivo; details: 100 g of the active ingredient per 10 ares, 21st day after the application, index 0-5 of Table 47
Summary of the method: as §3

monochoria (Mo) = assay: as above; type: in vivo; details: 100 g of the active ingredient per 10 ares, 21st day after the application, index 0-5 of Table 47;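 further: grade of growth control; 5 = at least 90%; 4 = 70 to 90%; 3 = 50 to 70%; 2 = 30 to 50%; 1 = 10 to 30%; 0 = under 10%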
Summary of the method: as §3

[12] = 21st day after the application, index 0-5 of Table 47
[13] = 100 g of the active ingredient per 10 ares, evaluated on the 14th day after treatment
[14] = evaluated on the 21st day after application
[15] = 100 g active ingredient per 10 ares, evaluated 14th day after treatment

Cn1c(C(F)(F)F)ccc(-c2ccc(Cl)cc2F)c1=O [Compound No. 1-2, 3-(4-chloro-2-fluorophenyl)-1-methyl-6-trifluoromethyl-2(1H)-pyridone]
103 to 104 °C: melting point
5: Herbicidal effects Po (pale smartweed (Po) [1]; [12]) | Herbicidal effects Ec (barnyardgrass (Ec) [2]; [12]) | Herbicidal effects Di (Digitaria ciliaris (Di); [12]) | Herbicidal effects Ch [3, 12] | Herbicidal effects Am (slender amaranth (Am) [4]; [12]) | Herbicidal effects Ci (rice flatsedge (Ci) [5]; [12]) | Herbicidal effects Di (Diaitaria ciliaris (Di); [13]) | Herbicidal effects Po (pale smartweed (Po) [6]; [13]) | Herbicidal effects Ec (barnyardgrass (Ec) [7]; [13]) | Herbicidal effects Ch [8, 13] | Herbicidal effects Am (slender amaranth (Am) [9]; [13]) | Herbicidal effects Ci (rice flatsedge (Ci) [10]; [13]) | Herbicidal effects Sc (bulrush (Sc)) | Herbicidal effects Ec (barnyardgrass (Ec) [11]) | Herbicidal effects Mo (monochoria (Mo))

Nn1c(C(F)(F)F)ccc(-c2ccc(Cl)cc2Cl)c1=O [Compound No. 1-5, 1-amino-3-(2,4-dichlorophenyl)-6-trifluoromethyl-2(1H)-pyridone]
5: Herbicidal effects Po (pale smartweed (Po) [1]; [12]) | Herbicidal effects Ec (barnyardgrass (Ec) [2]; [12]) | Herbicidal effects Di (Digitaria ciliaris (Di); [12]) | Herbicidal effects Ch [3, 12] | Herbicidal effects Am (slender amaranth (Am) [4]; [12]) | Herbicidal effects Ci (rice flatsedge (Ci) [5]; [12]) | Herbicidal effects Di (Diaitaria ciliaris (Di); [13]) | Herbicidal effects Po (pale smartweed (Po) [6]; [13]) | Herbicidal effects Ec (barnyardgrass (Ec) [7]; [13]) | Herbicidal effects Ch [8, 13] | Herbicidal effects Am (slender amaranth (Am) [9]; [13]) | Herbicidal effects Ci (rice flatsedge (Ci) [10]; [13]) | Herbicidal effects Sc (bulrush (Sc)) | Herbicidal effects Ec (barnyardgrass (Ec) [11]) | Herbicidal effects Mo (monochoria (Mo))
98 to 100 °C: melting point

Cn1c(C(F)(F)F)ccc(-c2ccc(F)cc2F)c1=O [Compound No. 1-12, 3-(2,4-difluorophenyl)-1-methyl-6-trifluoromethyl-2(1H)-pyridone]
5: Herbicidal effects Sc (bulrush (Sc)) | Herbicidal effects Ec (barnyardgrass (Ec) [11]) | Herbicidal effects Mo (monochoria (Mo))
123 to 124 °C: melting point

Cn1c(C(F)(F)F)ccc(-c2cc([N+](=O)[O-])c(Cl)cc2F)c1=O [Compound No. 1-58, 3-(4-chloro-2-fluoro-5-nitrophenyl)-1-methyl-6-trifluoromethyl-2(1H)-pyridone]
139 to 140 °C: melting point
5: Herbicidal effects Sc (bulrush (Sc)) | Herbicidal effects Ec (barnyardgrass (Ec) [11]) | Herbicidal effects Mo (monochoria (Mo))

Cn1c(C(F)(F)F)ccc(-c2cc(NS(C)(=O)=O)c(Cl)cc2F)c1=O [Compound No. 1-60, 3-(4-chloro-2-fluoro-5-methylsulfonylaminophenyl)-1-methyl-6-trifluoromethyl-2(1H)-pyridone]
113 to 114 °C: melting point
5: Herbicidal effects Po (pale smartweed (Po) [1]; [12]) | Herbicidal effects Ec (barnyardgrass (Ec) [2]; [12]) | Herbicidal effects Di (Digitaria ciliaris (Di); [12]) | Herbicidal effects Ch [3, 12] | Herbicidal effects Am (slender amaranth (Am) [4]; [12]) | Herbicidal effects Ci (rice flatsedge (Ci) [5]; [12]) | Herbicidal effects Di (Diaitaria ciliaris (Di); [13]) | Herbicidal effects Po (pale smartweed (Po) [6]; [13]) | Herbicidal effects Ec (barnyardgrass (Ec) [7]; [13]) | Herbicidal effects Ch [8, 13] | Herbicidal effects Am (slender amaranth (Am) [9]; [13]) | Herbicidal effects Ci (rice flatsedge (Ci) [10]; [13]) | Herbicidal effects Sc (bulrush (Sc)) | Herbicidal effects Ec (barnyardgrass (Ec) [11]) | Herbicidal effects Mo (monochoria (Mo))

Cn1c(C(F)(F)F)ccc(-c2cc(S(C)(=O)=O)c(Cl)cc2F)c1=O [Compound No. 1-73, 3-(4-chloro-2-fluoro-5-methylsulfonylphenyl)-1-methyl-6-trifluoromethyl-2(1H)-pyridone]
144 to 145 °C: melting point
4: Herbicidal effects Ec (barnyardgrass (Ec) [2]; [12])
5: Herbicidal effects Po (pale smartweed (Po) [1]; [12]) | Herbicidal effects Di (Digitaria ciliaris (Di); [12]) | Herbicidal effects Ch [3, 12] | Herbicidal effects Am (slender amaranth (Am) [4]; [12]) | Herbicidal effects Ci (rice flatsedge (Ci) [5]; [12]) | Herbicidal effects Sc (bulrush (Sc)) | Herbicidal effects Ec (barnyardgrass (Ec) [11]) | Herbicidal effects Mo (monochoria (Mo))

C#CCOc1cc(-c2cc(C)c(C(F)(F)F)n(C)c2=O)c(F)cc1Cl [Compound No. 1-76, 3-(4-chloro-2-fluoro-5-propargyloxyphenyl)-1,5-dimethyl-6-trifluoromethyl-2(1H)-pyridone]
107 to 108 °C: melting point
5: Herbicidal effects Po (pale smartweed (Po) [1]; [12]) | Herbicidal effects Ec (barnyardgrass (Ec) [2]; [12]) | Herbicidal effects Di (Digitaria ciliaris (Di); [12]) | Herbicidal effects Ch [3, 12] | Herbicidal effects Am (slender amaranth (Am) [4]; [12]) | Herbicidal effects Ci (rice flatsedge (Ci) [5]; [12]) | Herbicidal effects Di (Diaitaria ciliaris (Di); [13]) | Herbicidal effects Po (pale smartweed (Po) [6]; [13]) | Herbicidal effects Ec (barnyardgrass (Ec) [7]; [13]) | Herbicidal effects Ch [8, 13] | Herbicidal effects Am (slender amaranth (Am) [9]; [13]) | Herbicidal effects Ci (rice flatsedge (Ci) [10]; [13]) | Herbicidal effects Sc (bulrush (Sc)) | Herbicidal effects Ec (barnyardgrass (Ec) [11]) | Herbicidal effects Mo (monochoria (Mo))

Cn1c(C(F)(F)F)ccc(-c2cc(S(=O)(=O)Cl)c(Cl)cc2F)c1=O [Compound No. 1-84, 3-(4-chloro-5-chlorosulfonyl-2-fluorophenyl)-1-methyl-6-trifluoromethyl-2(1H)-pyridone]
77 to 78 °C: melting point
5: Herbicidal effects Di (Diaitaria ciliaris (Di); [13]) | Herbicidal effects Po (pale smartweed (Po) [6]; [13]) | Herbicidal effects Ec (barnyardgrass (Ec) [7]; [13]) | Herbicidal effects Ch [8, 13] | Herbicidal effects Am (slender amaranth (Am) [9]; [13]) | Herbicidal effects Ci (rice flatsedge (Ci) [10]; [13])

Cn1c(C(F)(F)F)ccc(-c2cc([S+](C)[O-])c(Cl)cc2F)c1=O (stereo not shown) [Compound No. 1-88, 3-(4-chloro-2-fluoro-5-methylsulfinylphenyl)-1-methyl-6-trifluoromethyl-2(1H)-pyridone]
147 to 148 °C: melting point
4: Herbicidal effects Ec (barnyardgrass (Ec) [2]; [12])
5: Herbicidal effects Po (pale smartweed (Po) [1]; [12]) | Herbicidal effects Di (Digitaria ciliaris (Di); [12]) | Herbicidal effects Ch [3, 12] | Herbicidal effects Am (slender amaranth (Am) [4]; [12]) | Herbicidal effects Ci (rice flatsedge (Ci) [5]; [12]) | Herbicidal effects Sc (bulrush (Sc)) | Herbicidal effects Ec (barnyardgrass (Ec) [11]) | Herbicidal effects Mo (monochoria (Mo))

C#CCn1c(=O)oc2cc(Cl)c(-c3ccc(C(F)(F)F)n(C)c3=O)cc21 [Compound No. 3-9, 3-[6-chloro-3-(2-propynyl)-benzoxazolin-2-on-5-yl]-1-methyl-6-trifluoromethyl-2(1H)-pyridone]
5: Herbicidal effects Po (pale smartweed (Po) [1]; [14]) | Herbicidal effects Ec (barnyardgrass (Ec) [2]; [14]) | Herbicidal effects Di (Digitaria ciliaris (Di); [14]) | Herbicidal effects Ch [3, 14] | Herbicidal effects Am (slender amaranth (Am) [4]; [14]) | Herbicidal effects Ci (rice flatsedge (Ci) [5]; [14]) | Herbicidal effects Sc (bulrush (Sc)) | Herbicidal effects Ec (barnyardgrass (Ec) [11]) | Herbicidal effects Mo (monochoria (Mo))
187 to 189 °C: melting point

CCOC(=O)c1cc2c(-c3ccc(C(F)(F)F)n(C)c3=O)c(F)cc(Cl)c2o1 [Compound No. 4-6, 3-(7-chloro-2-ethoxycarbonyl-5-fluorobenzofuran-4-yl)-1-methyl-6-trifluoromethyl-2-(1H)-pyridone]
4: Herbicidal effects Di (Diaitaria ciliaris (Di); [15])
118 to 120 °C: melting point
5: Herbicidal effects Po (pale smartweed (Po) [6]; [15]) | Herbicidal effects Ec (barnyardgrass (Ec) [7]; [15]) | Herbicidal effects Ch [8, 15] | Herbicidal effects Am (slender amaranth (Am) [9]; [15]) | Herbicidal effects Ci (rice flatsedge (Ci) [10]; [15]) | Herbicidal effects Sc (bulrush (Sc)) | Herbicidal effects Ec (barnyardgrass (Ec) [11]) | Herbicidal effects Mo (monochoria (Mo))

CCOC(=O)c1c(C(F)(F)F)[nH]cc(-c2cc(OC(C)C)c(Cl)cc2F)c1=O [Compound No. 6-57, 5-(4-chloro-2-fluoro-5-isopropoxyphenyl)-3-ethoxycarbonyl-2-trifluoromethyl-4(1H)-pyridone]
118 to 119 °C: melting point

Cn1c(C(F)(F)F)cc(Cl)c(-c2ccc(Cl)cc2)c1=O [Compound No. 11-1, 3-(4-chlorophenyl)-4-chloro-1-methyl-6-trifluoromethyl-2(1H)-pyridone]
48 to 50 °C: melting point

Cn1c(C(F)(F)F)cc(F)c(-c2ccc(Cl)cc2)c1=O [Compound No. 11-2, 3-(4-chlorophenyl)-4-fluoro-1-methyl-6-trifluoromethyl-2(1H)-pyridone]
120 to 122 °C: melting point

Cn1c(C(F)(F)F)cc(Cl)c(-c2ccc(Cl)c(NS(C)(=O)=O)c2)c1=O [Compound No. 11-3, 3-(4-chloro-3-methylsulfonylaminophenyl)-4-chloro-1-methyl-6-trifluoromethyl-2(1H)-pyridone]
161 to 163 °C: melting point

Cn1c(C(F)(F)F)cc(=O)c(-c2ccc(Cl)cc2)c1Cl [Compound No. 13-1, 3-(4-chlorophenyl)-2-chloro-1-methyl-6-trifluoromethyl-4(1H)-pyridone]
88 to 90 °C: melting point
